# Measured values: patent US8815210B2, “Diagnostic composition comprising plasma cations having superior safety profile” (GE Healthcare AS, priority 2009, dated 2014)
# “Also recorded” adds a separate entry of the source.
# How the values were obtained:
# [1] = Partition coefficient between octanol and water; format: physicochemical; conditions: n-octanol/water
# Description: As a measure of the hydrophilicity of Compound I, the partition coefficient between octanol and water was determined. Water (5 ml) containing the test substance (0.3 mg/ml) was shaken with 15 ml n-octanol until equilibrium had been obtained. The aqueous phase was separated by centrifugation and analyzed by HPLC (HP1100 equipped with a Discovery C18 column, 100×2.1 mm) using UV detection at 244 nm and a flow of 0.3 ml/min. Isocratic HPLC conditions were used, 8% acetonitrile in water (v/v). The octanol phase (12.5 ml) was extracted with water (0.75 ml) until equilibrium had been obtained and the phases were separated by centrifugation. The aqueous phase was analyzed by HPLC using the conditions detailed above. Both octanol and water were pre-saturated with water and octanol, respectively, before the partition coefficient experiments. […] As a comparison, the corresponding logP of iodixanol was determined to −4.02. The reported literature value is −4.05. The increased hydrophilicity of Compound I compared to iodixanol is confirmed by its HPLC behavior.
# [2] = Viscosity, calibrated U-tube technique; format: physicochemical; conditions: 320 mgI/ml, 20° C.
# Description: The viscosity of compound I was determined at 20° C. and 37° C. at three different concentrations. The viscosity at 320 mgI/ml and 20° C. is around 24 mPas.
# The viscosity of Compound I was determined at two different temperatures, 20° C. and 37° C. and three different concentrations, 246, 295 and 313 mgI/ml. The test solutions were isotonic through adjustment of the osmolality with NaCl and had been sterilized by autoclavation. The density of the solutions was determined using a Density meter, DMA58 (Anton Paar). A calibrated U-tube technique was used, where the time of fall was used as a measure of dynamic viscosity. The viscosity of compound I was determined at 20° C. and 37° C. at three different concentrations. In comparison with Visipaque, the viscosity at 320 mgI/ml and 20° C. is similar, around 24 mPas.
# normal pigs = assay: Haemodynamic effects after LAD injection in normal pigs without balloon occlusion (Example 2b); format: in vivo, pig; conditions: 25 ml into LAD, 45 to 70 seconds after injection
# Description: FIG. 5 depicts the effect of Compound I (with and without added Ca) and Visipaque on LVSP 45 to 70 seconds from the start of injection to the LAD of normal pigs normalised to Ringer Lacate (LR) injection.
# The haemodynamic effects of compositions of Compound I with and without added CaCl2 were compared to Visipaque and Iopamidol following selective administration to the LAD in normal pigs without balloon occlusion. The effects of each contrast media were normalised to any effects seen with an equivalent injection of Ringer Lactate solution, which acted as a volume and electrolyte—“ratio” control. There were a total of 12 pigs in this study, and each pig received a single CM injected 3 times at volumes of 10 ml (4 ml/sec), 20 ml (1 ml/sec) and 25 ml (0.4 ml/sec) (total of 9 CM injections in each pig). Each CM was either preceded or followed by a control injection of Ringer Lactate, and the order of each injection (volume) was randomised in each pig.
# porcine heart = assay: Intravenous and intra-arterial cardiovascular safety, acute porcine model (Example 3); format: in vivo, pig
# Description: The intravenous (i.v) and intra-arterial (i.a.) safety of a composition of Compound I was shown in a separate study (ref. B145095). In this study the cardiovascular effects of Compound I in a composition with 45 mM NaCl and 0.5 mM CaCl2 was assessed at three dose levels in vivo in an acute porcine model.
# The composition was administered either intra-arterially or intravenously into groups of three animals at one of three dose levels (1-fold, 2-fold or 3-fold the standard volume of 2 ml/kg). Each animal also received an equivalent volume of Ringer-Lactate solution as a volume control. CV effects: heart rate (HR), pulse oximetry, electrocardiogram (ECG), aortic pressure (systolic, diastolic and mean), left ventricular end diastolic pressure (LVEDP) were assessed. Ultrasound/echocardiography to assess stroke volume, ejection fraction and cardiac contractility were also evaluated.
# [3] = system: CD25^+-depleted peripheral blood mononuclear cells; assay: In vitro T cell proliferation model; format: cell-based; conditions: 2 and 5 mg I/mL, 100 donors, positive response stimulation index ≧1.9
# Description: Generally, iodinated contrast media may cause late hypersensitivity reactions in susceptible patients from 1 hour to several days after exposure. These reactions are mainly non-serious skin eruptions such as macular, maculopapular and urticaria-like eruptions. Contrast media-induced delayed adverse reactions (DARs) such as skin eruptions appear to be caused by contrast media-reactive T cells that, upon recognizing the contrast media, proliferate and subsequently orchestrate an inflammatory reaction in the skin. The applicant has evaluated an in vitro T cell proliferation model designed to predict the relative frequency with which contrast media, such as Compound I, will cause late skin reactions in patients post-intravascular administration. Two contrast media, iodixanol and iohexol, with known rates of delayed skin reactions, and the new contrast medium, Compound I, was screened (2 and 5 mg I/mL) for in vitro T cell proliferation in CD25^+-depleted peripheral blood mononuclear cells from 100 donors representing world population HLA-DR frequencies. Positive T cell responses were evaluated according to published protocols and stimulation index values (positive response≧1.9). In vitro toxicity was tested by measuring cell viability of the first 10 donor samples incubated with test contrast media (5 mg I/mL). The results were that all major HLA-DR allotypes were represented with a frequency equivalent to the world population. No contrast media tested appeared to have a meaningful effect on cell viability. […] For iodixanol and iohexol, T cell proliferation responses for most donors occurred on days 7 and 8; statistical significance favored a reduced proliferation response to Compound I on day 8. In conclusions the model successfully established the relative frequency with which contrast media caused in vitro T cell activation. The results correlated with reported frequency of late skin reactions with two marketed contrast media and identified a lower frequency for Compound I.
compound,measurement,setting,value
"O=CN(CC(O)CN(C=O)c1c(I)c(C(=O)NCC(O)CO)c(I)c(C(=O)NCC(O)CO)c1I)c1c(I)c(C(=O)NCC(O)CO)c(I)c(C(=O)NCC(O)CO)c1I (stereo not shown) [Compound I, 5-[formyl-[3-[formyl-[3,5-bis(2,3-dihydroxypropylcarbamoyl)-2,4,6-triiodophenyl]amino]-2-hydroxypropyl]amino]-N,N′-bis(2,3-dihydroxypropyl)-2,4,6-triiodobenzene-1,3-dicarboxamide]",logP,[1],-4.28
same,viscosity,[2],around 24 mPas
same,LVSP change normalised to Ringer Lactate,normal pigs; composition with 45 mM NaCl and 0.5 mM CaCl2,−0.3 mm Hg
same,LVSP change normalised to Ringer Lactate (mean),"normal pigs; composition with 45 mM NaCl, no added CaCl2",−5.7 mm Hg
same,"effect on aortic pressure (systolic, diastolic and mean)","porcine heart; entire dose range, i.v. or i.a.",little or no effect
same,QT interval,porcine heart; i.a. or i.v. dosing,within the normal range
same,"myocardial performance, overall","porcine heart; i.a. or i.v. route, up to 3-fold of 2 ml/kg",no overall changes to myocardial performance
same,heart rate (HR),"porcine heart; i.v. or i.a., 1- to 3-fold of 2 ml/kg",remained within normal ranges
same,LVEDP,"porcine heart; increasing doses, i.v. or i.a.",slight increases
same,"end diastolic volume (EDV), echocardiography","porcine heart; pig, in vivo",only a slight change
same,rhythm disturbances (ECG),"porcine heart; pig, in vivo",no Compound I-related rhythm disturbances
same,oxygen saturation (pulse oximetry),"porcine heart; throughout dosing, i.v. or i.a., 1- to 3-fold of 2 ml/kg, composition with 45 mM NaCl and 0.5 mM CaCl2",approximately 98%
same,positive T cell proliferation donor samples,[3],fewer positive T cell proliferation donor samples compared with iodixanol and iohexol; also recorded: lowest capacity for stimulating in vitro T cell proliferation
